Data published in patent US12128024B2 (GEORGETOWN UNIVERSITY, priority 2004, dated 2024).

Assays:
[1] = test system: cervical cancer cell lines (HeLa, SiHa, Caski); assay: Viability dose-response of cervical cancer cell lines (FIG. 3); type: cell-based; conditions: 72 h, 25 μM DHA, within 3 days of treatment, read-out: loss of viability
HeLa cells = assay: Viability dose-response of HeLa cells (FIG. 3); type: cell-based; conditions: 25 μM DHA
[2] = cited from earlier work
[3] = test system: Namalwa, EBV positive Burkitt's lymphoma B cell line; assay: Trypan blue viability of EBV positive lymphoid cell line (FIG. 4); type: cell-based; conditions: human gammaherpesvirus 4, B-cell; 6.25 μM DHA; Namalwa cells; read-out: cells killed (viability as % of controls, trypan blue)
Experimental: (§1) One cell line, referred to as MJ, is an HTLV-I positive cutneous T cell leukemia line and the other cell line, referred to Namalwa, is an EBV positive Burkitt's lymphoma B cell line.
(§2) The cell lines were maintained in culture, using RPMI 1640 medium, supplemented with 10% fetal bovine serum and antibiotics. For the assay, 100,000 cells, in volumes of 100 μl medium, were placed in micro-titer wells; an additional 100 μl medium, containing 0 μM, 6.25 μM, 12.5 μM, 25 μM, 50 μM, 100 μM and 200 μM concentrations of DHA, were added. The negative controls contained medium only. The DHA stock (20 mM) was used to dilute the drug in concentrations ranging from 0 to 200 μM. All experiments were performed in triplicate. After incubation at 37° C. and 5% CO2, for various time periods, the cells were counted in a hemocytometer in the presence of trypan blue. Viability was expressed, as % of controls (no drug).

[4] = test system: MJ, HTLV-I positive cutneous T cell leukemia line; assay: Trypan blue viability of HTLV-I positive lymphoid cell line (FIG. 5); type: cell-based; conditions: Primate T-lymphotropic virus 1, T-cell; 6.25 μM DHA; MJ cells; read-out: cells killed (viability as % of controls, trypan blue)
Experimental: as §1, §2

[5] = test system: normal cervical cells (HCX); assay: Morphology of normal cervical cells after artemisinin treatment (phase contrast microscopy, FIG. 2); type: cell-based; conditions: 25 μM artemisinin, 3 days, vs control solvent
[6] = test system: cervical cancer cell lines; assay: Morphology of cervical cancer cell lines after artemisinin treatment (phase contrast microscopy, FIG. 2); type: cell-based; conditions: 25 μM artemisinin, 3 days, vs control solvent

C[C@H]1[C@@H](O)O[C@@H]2O[C@@]3(C)CC[C@H]4[C@H](C)CC[C@@H]1[C@@]24OO3 [DHA, dihydroartemisinin]
cytotoxicity at 25 µM [1]: 80% | cell death (HeLa cells): 95% | solubility in water compared with artemisinin [2]: higher solubility in water | cytotoxicity at 6.25 µM [3]: ~60% | cytotoxicity at 6.25 µM [4]: ~60%

CCO[C@H]1O[C@@H]2O[C@@]3(C)CC[C@H]4[C@H](C)CC[C@@H]([C@H]1C)[C@@]24OO3 [arteether]
solubility in water compared with artemisinin [2]: higher solubility in water

C[C@H]1[C@@H](OCc2ccc(C(=O)O)cc2)O[C@@H]2O[C@@]3(C)CC[C@H]4[C@H](C)CC[C@@H]1[C@@]24OO3 [artelinic acid]
solubility in water compared with artemisinin [2]: higher solubility in water

CO[C@H]1O[C@@H]2O[C@@]3(C)CC[C@H]4[C@H](C)CC[C@@H]([C@H]1C)[C@@]24OO3 [artemether]
solubility in water compared with artemisinin [2]: higher solubility in water

C[C@@H]1CC[C@H]2[C@@H](C)C(=O)O[C@@H]3O[C@@]4(C)CC[C@@H]1[C@]32OO4 [artemisinin]
change in morphology of normal cervical cells (HCX) [5]: little change in morphology | change in morphology of cervical cancer cells [6]: rounded up and detached from the tissue culture plate

CCCOC(=O)OC1O[C@@H]2O[C@@]3(C)CC[C@H]4[C@H](C)CC[C@@H]([C@H]1C)[C@@]24OO3 (some centres unmarked) [propylcarbonate dihydroartemisinin]
solubility in water compared with artemisinin [2]: higher solubility in water
